# Measured values: ChEMBL document CHEMBL1201862, “PubChem BioAssay data set” (2004)
#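 Protocol summary: plate cells (96-well), add compound at 5 concentrations, incubate 48 h, interpolate endpoints linearly. Here, GI50 denotes the concentration required for 50% inhibition of growth.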 The source made the active and inactive calls. Rule as the data show it: active = GI50 up to about 1.1 µM and inactive = higher.
# Assays:
# Assay in all cases: NCI anticancer screen, dose series, 48 h
# CAKI-1 = tested on: CAKI-1
# HCC 2998 = tested on: HCC 2998
# HT-29 = tested on: HT-29
# Hs-578T = tested on: Hs-578T
# K562 = tested on: K562
# LOX IMVI = tested on: LOX IMVI
# MCF7 = tested on: MCF7
# MDA-N = tested on: MDA-N
# NCI-H226 = tested on: NCI-H226
# OVCAR-5 = tested on: OVCAR-5
# PC-3 = tested on: PC-3
# SF-268 = tested on: SF-268
# SF-539 = tested on: SF-539
# SK-MEL-2 = tested on: SK-MEL-2
# SK-MEL-5 = tested on: SK-MEL-5
# SN12C = tested on: SN12C
# SNB-75 = tested on: SNB-75
# SW-620 = tested on: SW-620
# T47D = tested on: T47D
# TK-10 = tested on: TK-10
SMILES,GI50 (CAKI-1),GI50 (HCC 2998),GI50 (HT-29),GI50 (Hs-578T),GI50 (K562),GI50 (LOX IMVI),GI50 (MCF7),GI50 (MDA-N),GI50 (NCI-H226),GI50 (OVCAR-5),GI50 (PC-3),GI50 (SF-268),GI50 (SF-539),GI50 (SK-MEL-2),GI50 (SK-MEL-5),GI50 (SN12C),GI50 (SNB-75),GI50 (SW-620),GI50 (T47D),GI50 (TK-10)
N#Cc1c(-c2ccc(Cl)cc2)c(-c2ccc(Cl)cc2)nn(CCOC(=O)CCC(=O)O)c1=O,1.83 µM (inactive),0.618 µM (active),0.796 µM (active),1.38 µM (inactive),0.344 µM (active),0.667 µM (active),0.165 µM (active),0.08 µM (active),0.258 µM (active),1.27 µM (inactive),0.423 µM (active),0.809 µM (active),0.421 µM (active),0.221 µM (active),0.166 µM (active),0.851 µM (active),0.193 µM (active),0.995 µM (active),> 32.3 µM (inactive),4.11 µM (inactive)
Nc1ncc(Br)c(NCC2(CO)CCC2)n1,49.8 µM (inactive),> 100 µM (inactive),> 100 µM (inactive),> 100 µM (inactive),> 100 µM (inactive),> 100 µM (inactive),> 100 µM (inactive),> 100 µM (inactive),66.8 µM (inactive),20.7 µM (inactive),> 100 µM (inactive),> 100 µM (inactive),> 100 µM (inactive),> 100 µM (inactive),54.5 µM (inactive),> 100 µM (inactive),> 100 µM (inactive),> 100 µM (inactive),1.69 µM (inactive),> 100 µM (inactive)
CC(N1CCOCC1)C(O)(c1ccccc1)c1ccccn1 (stereo not given),> 100 µM (inactive),0.0192 µM (active),> 100 µM (inactive),> 100 µM (inactive),> 100 µM (inactive),> 100 µM (inactive),41 µM (inactive),> 100 µM (inactive),> 100 µM (inactive),> 100 µM (inactive),> 100 µM (inactive),> 100 µM (inactive),> 100 µM (inactive),> 100 µM (inactive),> 100 µM (inactive),> 100 µM (inactive),> 100 µM (inactive),> 100 µM (inactive),> 100 µM (inactive),> 100 µM (inactive)
CC(C)COC(=O)OC(=O)c1ccc(N(C)Cc2cnc3nc(N)nc(N)c3n2)cc1,> 32.1 µM (inactive),> 100 µM (inactive),26.9 µM (inactive),> 100 µM (inactive),0.466 µM (active),1.41 µM (inactive),6.35 µM (inactive),7.96 µM (inactive),> 100 µM (inactive),> 100 µM (inactive),2.47 µM (inactive),9.89 µM (inactive),10.8 µM (inactive),> 100 µM (inactive),5.22 µM (inactive),> 100 µM (inactive),> 38.2 µM (inactive),3.86 µM (inactive),> 100 µM (inactive),> 88.1 µM (inactive)
O=C(OCc1ccccc1)N1c2cc([N+](=O)[O-])ccc2C(=O)N2CCC[C@H]2C1O (stereo not given in full),> 100 µM (inactive),> 100 µM (inactive),> 100 µM (inactive),> 100 µM (inactive),> 100 µM (inactive),> 100 µM (inactive),> 100 µM (inactive),> 100 µM (inactive),> 100 µM (inactive),> 100 µM (inactive),> 100 µM (inactive),> 100 µM (inactive),> 100 µM (inactive),> 100 µM (inactive),> 100 µM (inactive),> 100 µM (inactive),> 100 µM (inactive),> 100 µM (inactive),> 100 µM (inactive),> 100 µM (inactive)
S=C1SCN(Cc2ccco2)CN1c1ccc(Br)cc1,14.8 µM (inactive),14.5 µM (inactive),13.8 µM (inactive),24.8 µM (inactive),2.45 µM (inactive),1.72 µM (inactive),14.6 µM (inactive),16.9 µM (inactive),25.2 µM (inactive),16.8 µM (inactive),16.7 µM (inactive),13.2 µM (inactive),14.5 µM (inactive),13.6 µM (inactive),12.1 µM (inactive),23.4 µM (inactive),37.8 µM (inactive),19.5 µM (inactive),20.1 µM (inactive),22.8 µM (inactive)
CCOC(=O)NNC1(SC)NC(=O)c2c(cc(Cl)oc2=O)O1 (stereo not given),2.72 µM (inactive),4.29 µM (inactive),2.19 µM (inactive),5.64 µM (inactive),1.62 µM (inactive),2.06 µM (inactive),1.91 µM (inactive),2.58 µM (inactive),20.9 µM (inactive),11.5 µM (inactive),3.4 µM (inactive),3.49 µM (inactive),1.79 µM (inactive),7.73 µM (inactive),5.16 µM (inactive),3.21 µM (inactive),9.84 µM (inactive),3.31 µM (inactive),6.85 µM (inactive),3.55 µM (inactive)
